The record followed here is patent US9872861B2, “Methods of treatment using selective Bcl-2 inhibitors” (AbbVie Inc., priority 2010, dated 2018).

Series [1] deals with RS4;11 cells. Description: Cellular efficacy in Bcl-2 dependent tumor cell line RS4;11. The class given is cell-based, human. Particulars: Homo sapiens, RS4-11; 10% HS.
Series [2] deals with H146 cells. Kind of series: Cellular efficacy in Bcl-XL dependent tumor cell line H146. Particulars: Homo sapiens, NCI-H146; 10% HS. The class given is cell-based.
For series [3], the target named is T1, Bcl-w (Homo sapiens, UniProt Q92843).
T1 sequence (Q92843 1-193): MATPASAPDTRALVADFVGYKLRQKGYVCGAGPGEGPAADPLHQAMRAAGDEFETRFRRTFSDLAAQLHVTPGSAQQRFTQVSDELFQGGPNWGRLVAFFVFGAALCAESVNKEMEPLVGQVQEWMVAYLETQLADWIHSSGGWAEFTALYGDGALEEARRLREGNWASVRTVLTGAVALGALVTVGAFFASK
Kind of series: TR FRET competitive binding affinity, Bcl-w. Particulars: read-out: Target Affinity TR FRET, Bcl-w. On the procedure: (§1) A comparison of the binding affinity for each of the compounds was performed to determine target affinity, as measured by Time-Resolved Fluorescence Resonance Energy Transfer (TR FRET).

Series [4] deals with FL5.12-Bcl-XL cells. Kind of series: Cellular efficacy in FL5.12 cells dependent on Bcl-XL. It is filed as cell-based, murine. To be noted: Mus musculus, 3% FBS.
The subject of series [5] is FL5.12-Bcl-2 cells. Kind of series: Cellular efficacy in FL5.12 cells dependent on Bcl-2. To be noted: Mus musculus, 3% FBS. It is filed as cell-based, murine.
Series [6] deals with peripheral blood immune cells and platelets. Kind of series: Peripheral blood lymphocytes and platelets in (NZB×NZW)F1 mice, Cell Dyn hematology analyzer. The class given is in vivo.
Series [7] deals with Mcl-1 (Homo sapiens, UniProt Q07820). Description: TR FRET competitive binding affinity, Mcl-1. To be noted: read-out: Target Affinity TR FRET, Mcl-1. On the procedure:
as §1

The subject of series [8] is peripheral blood immune cells. Description: Peripheral blood lymphocytes in C57BL/6 mice, Cell Dyn hematology analyzer. It is filed as in vivo. Particulars: for inhibition in vivo at 100 mg/kg: Mus musculus, Lymphocyte. On the procedure:
The effect of the Bcl-2 selective/Bcl-XL sparing compounds on peripheral blood immune cells was also evaluated in C57BL/6 mice. Mice were treated four days with individual compounds (100 mg/kg, orally every day) and cell numbers were measured with a Cell Dyn hematology analyzer.

Series [9] deals with Bcl-2 (Homo sapiens, UniProt P10415). Kind of series: TR FRET competitive binding affinity, Bcl-2. To be noted: read-out: Target Affinity TR FRET, Bcl-2. On the procedure: as §1
Bcl-2, sequence (P10415 whole entry): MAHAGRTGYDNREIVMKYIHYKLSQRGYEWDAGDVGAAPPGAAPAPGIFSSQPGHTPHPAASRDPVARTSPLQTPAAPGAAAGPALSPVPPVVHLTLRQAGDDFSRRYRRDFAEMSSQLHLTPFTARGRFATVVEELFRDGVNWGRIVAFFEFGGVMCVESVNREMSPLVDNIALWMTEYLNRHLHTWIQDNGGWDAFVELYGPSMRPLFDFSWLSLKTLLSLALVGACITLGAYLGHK
The target in series [10] is Bcl-XL (Homo sapiens, UniProt Q07817). Kind of series: TR FRET competitive binding affinity, Bcl-XL. To be noted: read-out: Target Affinity TR FRET, Bcl-XL. As for the experimental part:
as §1

[11] abbreviates: (NZB×NZW)F1 mice, four days, orally every day.
Where [12] appears, read: 24 h, 1 oral dose of 100 mg/kg, read-out: Day 1 % Reduction vs. Vehicle.
[13] abbreviates: 96 h, 4 oral doses of 100 mg/kg, read-out: Day 4 % Reduction vs. Vehicle.
[14] abbreviates: 30 and 100 mg/kg intraperitoneal every day, four days.

pEC50, pKi: −log10 of the molar value. Where two headings read alike, the source gives them in different places.

Mcl-1, sequence (Q07820 whole entry): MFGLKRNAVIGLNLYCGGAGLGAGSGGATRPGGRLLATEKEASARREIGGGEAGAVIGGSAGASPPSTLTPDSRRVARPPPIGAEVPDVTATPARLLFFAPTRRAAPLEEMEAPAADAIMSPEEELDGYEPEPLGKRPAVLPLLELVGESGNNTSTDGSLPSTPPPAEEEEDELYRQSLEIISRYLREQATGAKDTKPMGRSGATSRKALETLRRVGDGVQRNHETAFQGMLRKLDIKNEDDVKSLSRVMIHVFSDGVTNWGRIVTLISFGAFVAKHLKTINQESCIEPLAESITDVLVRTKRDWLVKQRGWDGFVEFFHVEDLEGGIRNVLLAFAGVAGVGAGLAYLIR
Bcl-XL, sequence (Q07817 whole entry): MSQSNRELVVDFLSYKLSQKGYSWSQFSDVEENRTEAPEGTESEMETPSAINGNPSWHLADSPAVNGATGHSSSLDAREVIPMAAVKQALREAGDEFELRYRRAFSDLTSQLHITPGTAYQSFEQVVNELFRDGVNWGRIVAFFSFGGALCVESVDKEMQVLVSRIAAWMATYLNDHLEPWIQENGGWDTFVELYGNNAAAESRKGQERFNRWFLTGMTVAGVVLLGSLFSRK

On to `CC1(C)CCC(c2ccc(Cl)cc2)=C(CN2CCN(c3ccc(C(=O)NS(=O)(=O)c4ccc(N[C@H](CCN5CCOCC5)CSc5ccccc5)c(S(=O)(=O)C(F)(F)F)c4)cc3)CC2)C1` [Compound 2, N-(4-(4-((2-(4-chlorophenyl)-5,5-dimethyl-1-cyclohex-1-en-1-yl)methyl)piperazin-1-yl)benzoyl)-4-(((1R)-3-(morpholin-4-yl)-1-((phenylsulfanyl)methyl)propyl)amino)-3-((trifluoromethyl)sulfonyl)benzenesulfonamide, reference compound], for which the pEC50 in [1] was 6.96; in series [2] it was 7.12; in series [4], 7.89; in series [5], 7.70. In addition, in [3], the pKi was 8.15. Moreover, in series [6] (setting [11]), the “lymphocytes in peripheral blood” value was “decrease in lymphocytes”. Also, the platelet counts entry in series [6] (setting [11]) is reported as “significant decrease in platelet counts”.

Take `CC1(C)CCC(CN2CCN(c3ccc(C(=O)NS(=O)(=O)c4ccc(NCC5CCOCC5)c([N+](=O)[O-])c4)c(Oc4ccc5[nH]ccc5c4)c3)CC2)=C(c2ccc(Cl)cc2)C1` [Compound 3, 4-(4-{[2-(4-chlorophenyl)-4,4-dimethylcyclohex-1-en-1-yl]methyl}piperazin-1-yl)-2-(1H-indol-5-yloxy)-N-({3-nitro-4-[(tetrahydro-2H-pyran-4-ylmethyl)amino]phenyl}sulfonyl)benzamide]: the values for the pKi in series [7], in series [9] and in series [10] were 6.95, 9.92 and 6.82, respectively. Moreover, the pEC50 was 7.39 in series [1], below 5.30 in series [2], 5.97 in series [4] and 7.92 in series [5]. For the same compound, the “Day 1 Lymphocytes” value in [8] (1 oral dose of 100 mg/kg) is given as 2.3 ×10^6. For the same compound, the “Day 4 lymphocytes” value in series [8] (4 oral doses of 100 mg/kg) is recorded as 1.34 ×10^6. The inhibition in vivo at 100 mg/kg in series [8] (setting [12]) was 63%; in series [8] (setting [13]), 79%. Besides, the lymphocyte reduction came to 47% in [6] (30 mg/kg intraperitoneal every day, four days) and 66% in series [6] (100 mg/kg intraperitoneal every day, four days). Besides, in series [6] (100 mg/kg and 300 mg/kg), the “CD4+ T cells, CD8+ T cells and CD19+ B cells” value is “statistically significant decrease”. Moreover, the “lymphocytes vs phosal vehicle control” value in series [6] (setting [14]) is reported as “dose dependent decrease in lymphocytes”. In series [6] (setting [14]), the platelet counts result is on record as “without significantly affecting platelet counts”.

On to `CO[C@H]1CC[C@H](CNc2ccc(S(=O)(=O)NC(=O)c3ccc(N4CCN(CC5=C(c6ccc(Cl)cc6)CC(C)(C)CC5)CC4)cc3Oc3cnc4[nH]ccc4c3)cc2[N+](=O)[O-])CC1` [Compound 5, Trans-4-(4-{[2-(4-chlorophenyl)-4,4-dimethylcyclohex-1-en-1-yl]methyl}piperazin-1-yl)-N-[(4-{[(4-methoxycyclohexyl)methyl]amino}-3-nitrophenyl)sulfonyl]-2-(1H-pyrrolo[2,3-b]pyridin-5-yloxy)benzamide], for which the pEC50 in series [1] was 8.10; in series [2], below 5.30; in [4] it was 7.17; in series [5], 8.92. In [8] (1 oral dose of 100 mg/kg), the “Day 1 Lymphocytes” value was 0.98 ×10^6. For the same compound, the “Day 4 lymphocytes” value in series [8] (4 oral doses of 100 mg/kg) is on record as 1.02 ×10^6. Moreover, the inhibition in vivo at 100 mg/kg in [8] (setting [12]) and in series [8] (setting [13]) was 84% each time. Further, the pKi was above 11.00 in series [9] and 6.90 in [10].

Consider `CC1(C)CCC(CN2CCN(c3ccc(C(=O)NS(=O)(=O)c4cnc(OC[C@H]5CC[C@H](O)CC5)c(Cl)c4)c(Oc4cccc5[nH]ncc45)c3)CC2)=C(c2ccc(Cl)cc2)C1` [Compound 6, Trans-N-({5-chloro-6-[(4-hydroxycyclohexyl)methoxy]pyridin-3-yl}sulfonyl)-4-(4-{[2-(4-chlorophenyl)-4,4-dimethylcyclohex-1-en-1-yl]methyl}piperazin-1-yl)-2-(1H-indazol-4-yloxy)benzamide], for which the results for the pKi in [7], in [9] and in series [10] were below 6.65, above 11.00 and 7.57, respectively. Besides, the pEC50 in [1] was 7.64; in [2], 5.44. Moreover, the “Day 1 Lymphocytes” value in [8] (1 oral dose of 100 mg/kg) is 1.91 ×10^6. Moreover, the “Day 4 lymphocytes” value in [8] (4 oral doses of 100 mg/kg) is reported as 0.98 ×10^6. Moreover, the inhibition in vivo at 100 mg/kg amounted to 69% in series [8] (setting [12]) and 85% in series [8] (setting [13]).

As to `CC1(C)CCC(CN2CCN(c3ccc(C(=O)NS(=O)(=O)c4ccc(NC[C@H]5CC[C@@](C)(O)CC5)c([N+](=O)[O-])c4)c(Oc4cnc5[nH]ccc5c4)c3)CC2)=C(c2ccc(Cl)cc2)C1` [Compound 8, 4-(4-{[2-(4-chlorophenyl)-4,4-dimethylcyclohex-1-en-1-yl]methyl}piperazin-1-yl)-N-[(4-{[(cis-4-hydroxy-4-methylcyclohexyl)methyl]amino}-3-nitrophenyl)sulfonyl]-2-(1H-pyrrolo[2,3-b]pyridin-5-yloxy)benzamide], the pKi in [7] is below 6.36; in series [3], 6.39; in [10] it was 7.80. The pEC50 is 8.40 in series [1] and 5.48 in series [2]. Also, in series [8] (1 oral dose of 100 mg/kg), the “Day 1 Lymphocytes” value was 0.92 ×10^6. The “Day 4 lymphocytes” value in [8] (4 oral doses of 100 mg/kg) is reported as 1.02 ×10^6. Besides, the values for the inhibition in vivo at 100 mg/kg in [8] (setting [12]) and in series [8] (setting [13]) were 85% and 84%, respectively.

`CC1(C)CCC(CN2CCN(c3ccc(C(=O)NS(=O)(=O)c4ccc(NC[C@H]5CC[C@](C)(O)CC5)c([N+](=O)[O-])c4)c(Oc4cnc5[nH]ccc5c4)c3)CC2)=C(c2ccc(Cl)cc2)C1` [Compound 9, 4-(4-{[2-(4-chlorophenyl)-4,4-dimethylcyclohex-1-en-1-yl]methyl}piperazin-1-yl)-N-[(4-{[(trans-4-hydroxy-4-methylcyclohexyl)methyl]amino}-3-nitrophenyl)sulfonyl]-2-(1H-pyrrolo[2,3-b]pyridin-5-yloxy)benzamide]: the pKi in series [7] is below 6.36; in series [3], 6.64; in series [10], 7.80. The pEC50 in [1] is 8.60; in series [2], 5.43. Besides, the “Day 1 Lymphocytes” value in [8] (1 oral dose of 100 mg/kg) is reported as 0.75 ×10^6. The “Day 4 lymphocytes” value in [8] (4 oral doses of 100 mg/kg) is 0.88 ×10^6. Moreover, the inhibition in vivo at 100 mg/kg in series [8] (setting [12]) worked out at 88%; in series [8] (setting [13]) it was 86%.

On to `CC1(C)CCC(CN2CCN(c3ccc(C(=O)NS(=O)(=O)c4cnc(OCC5(F)CCOCC5)c(Cl)c4)c(Oc4cccc5[nH]ncc45)c3)CC2)=C(c2ccc(Cl)cc2)C1` [Compound 12, N-({5-chloro-6-[(4-fluorotetrahydro-2H-pyran-4-yl)methoxy]pyridin-3-yl}sulfonyl)-4-(4-{[2-(4-chlorophenyl)-4,4-dimethylcyclohex-1-en-1-yl]methyl}piperazin-1-yl)-2-(1H-indazol-4-yloxy)benzamide], for which the pEC50 in [1] is 7.77; in [2], 5.56; in series [4] it was 7.23; in series [5] it was 8.64. Further, the “Day 1 Lymphocytes” value in series [8] (1 oral dose of 100 mg/kg) is listed as 1.44 ×10^6. For the same compound, the “Day 4 lymphocytes” value in [8] (4 oral doses of 100 mg/kg) is recorded as 2.21 ×10^6. Moreover, the inhibition in vivo at 100 mg/kg is 78% in series [8] (setting [12]) and 74% in series [8] (setting [13]). Also, the pKi was above 11.00 in [9] and 7.64 in [10].

With `CC1(C)CCC(CN2CCN(c3ccc(C(=O)NS(=O)(=O)c4cnc(OCC5(F)CCN(C6COC6)CC5)c(Cl)c4)c(Oc4cnc5[nH]ccc5c4)c3)CC2)=C(c2ccc(Cl)cc2)C1` [Compound 13, N-[(5-chloro-6-{[4-fluoro-1-(oxetan-3-yl)piperidin-4-yl]methoxy}pyridin-3-yl)sulfonyl]-4-(4-{[2-(4-chlorophenyl)-4,4-dimethylcyclohex-1-en-1-yl]methyl}piperazin-1-yl)-2-(1H-pyrrolo[2,3-b]pyridin-5-yloxy)benzamide], the pKi in [7] was below 6.36; in series [3] it was 6.78; in series [10] it was 8.05. For the same compound, the pEC50 is 8.15 in series [1] and 5.50 in series [2]. The “Day 1 Lymphocytes” value in [8] (1 oral dose of 100 mg/kg) is 2.32 ×10^6. Also, the “Day 4 lymphocytes” value in [8] (4 oral doses of 100 mg/kg) is given as 2.61 ×10^6. The inhibition in vivo at 100 mg/kg in [8] (setting [12]) stood at 64%; in series [8] (setting [13]) it was 70%.
